Test results reported in patent US11718604B2, “4-amino-6-(1,3-benzodioxole)picolinates and their use as herbicides” (Dow AgroSciences LLC, priority 2018, dated 2023).

Tests used:
Format in all cases: in vivo
[1] = system: SETFA: giant foxtail (Setaria faberi); assay: Post-emergent herbicidal test, giant foxtail; conditions: post-emergence, 336 h, 14 days after application, read-out: Visual Growth Reduction (%) 14 Days After Application SETFA; for pest or weed control at 17.5 g/ha: 17.5 g ai/ha; for pest or weed control at 35 g/ha: 35 g ai/ha; for pest or weed control at 70 g/ha: 70 g ai/ha; for pest or weed control at 140 g/ha: 140 g ai/ha
Summary of the method: (§1)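 Plants are raised in potting mix of pH 6.0 to 6.8 in a greenhouse until the first or second true leaf, then sprayed with formulated compound at 187 L/ha at several rates (½× to 1/16× of the top rate). After 14 d, damage is rated visually as percent injury against untreated plants.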

[2] = system: DIGSA: large crabgrass (Digitaria sanguinalis); assay: Post-emergent herbicidal test, large crabgrass; conditions: post-emergence, 336 h, 14 days after application, read-out: Visual Growth Reduction (%) 14 Days After Application DIGSA; for pest or weed control at 17.5 g/ha: 17.5 g ai/ha; for pest or weed control at 35 g/ha: 35 g ai/ha; for pest or weed control at 70 g/ha: 70 g ai/ha; for pest or weed control at 140 g/ha: 140 g ai/ha
Summary of the method: as §1

[3] = system: CYPES: yellow nutsedge (Cyperus esculentus); assay: Post-emergent herbicidal test, yellow nutsedge; conditions: post-emergence, 336 h, 14 days after application, read-out: Visual Growth Reduction (%) 14 Days After Application CYPES; for pest or weed control at 17.5 g/ha: 17.5 g ai/ha; for pest or weed control at 35 g/ha: 35 g ai/ha; for pest or weed control at 70 g/ha: 70 g ai/ha; for pest or weed control at 140 g/ha: 140 g ai/ha
Summary of the method: as §1

[4] = system: ECHCG: barnyardgrass (Echinochloa crus-galli); assay: Post-emergent herbicidal test, barnyardgrass; conditions: post-emergence, 336 h, 14 days after application, read-out: Visual Growth Reduction (%) 14 Days After Application ECHCG; for pest or weed control at 17.5 g/ha: 17.5 g ai/ha; for pest or weed control at 35 g/ha: 35 g ai/ha; for pest or weed control at 70 g/ha: 70 g ai/ha; for pest or weed control at 140 g/ha: 140 g ai/ha
Summary of the method: as §1

[5] = system: SORVU: shattercane (Sorghum bicolor); assay: Post-emergent herbicidal test, shattercane; conditions: post-emergence, 336 h, 14 days after application, read-out: Visual Growth Reduction (%) 14 Days After Application SORVU; for pest or weed control at 17.5 g/ha: 17.5 g ai/ha; for pest or weed control at 35 g/ha: 35 g ai/ha; for pest or weed control at 70 g/ha: 70 g ai/ha; for pest or weed control at 140 g/ha: 140 g ai/ha
Summary of the method: as §1

[6] = system: BRSNN: oilseed rape, canola (Brassica napus); assay: Post-emergent herbicidal test, oilseed rape; conditions: post-emergence, 336 h, 14 days after application, read-out: Visual Growth Reduction (%) 14 Days After Application BRSNN; for pest or weed control at 17.5 g/ha: 17.5 g ai/ha; for pest or weed control at 35 g/ha: 35 g ai/ha; for pest or weed control at 70 g/ha: 70 g ai/ha; for pest or weed control at 140 g/ha: 140 g ai/ha
Summary of the method: as §1

[7] = system: IPOHE: ivyleaf morningglory (Ipomoea hederacea); assay: Post-emergent herbicidal test, ivyleaf morningglory; conditions: post-emergence, 336 h, 14 days after application, read-out: Visual Growth Reduction (%) 14 Days After Application IPOHE; for pest or weed control at 17.5 g/ha: 17.5 g ai/ha; for pest or weed control at 35 g/ha: 35 g ai/ha; for pest or weed control at 70 g/ha: 70 g ai/ha; for pest or weed control at 140 g/ha: 140 g ai/ha
Summary of the method: as §1

[8] = system: EPHHL: wild poinsettia (Euphorbia heterophylla); assay: Post-emergent herbicidal test, wild poinsettia; conditions: post-emergence, 336 h, 14 days after application, read-out: Visual Growth Reduction (%) 14 Days After Application EPHHL; for pest or weed control at 17.5 g/ha: 17.5 g ai/ha; for pest or weed control at 35 g/ha: 35 g ai/ha; for pest or weed control at 70 g/ha: 70 g ai/ha; for pest or weed control at 140 g/ha: 140 g ai/ha
Summary of the method: as §1

[9] = system: CIRAR: Canada thistle (Cirsium arvense); assay: Post-emergent herbicidal test, Canada thistle; conditions: post-emergence, 336 h, 14 days after application, read-out: Visual Growth Reduction (%) 14 Days After Application CIRAR; for pest or weed control at 17.5 g/ha: 17.5 g ai/ha; for pest or weed control at 35 g/ha: 35 g ai/ha; for pest or weed control at 70 g/ha: 70 g ai/ha; for pest or weed control at 140 g/ha: 140 g ai/ha
Summary of the method: as §1

[10] = system: ABUTH: velvetleaf (Abutilon theophrasti); assay: Post-emergent herbicidal test, velvetleaf; conditions: post-emergence, 336 h, 14 days after application, read-out: Visual Growth Reduction (%) 14 Days After Application ABUTH; for pest or weed control at 17.5 g/ha: 17.5 g ai/ha; for pest or weed control at 35 g/ha: 35 g ai/ha; for pest or weed control at 70 g/ha: 70 g ai/ha; for pest or weed control at 140 g/ha: 140 g ai/ha
Summary of the method: as §1

[11] = system: VIOTR: wild violet (Viola tricolor); assay: Post-emergent herbicidal test, wild violet; conditions: post-emergence, 336 h, 14 days after application, read-out: Visual Growth Reduction (%) 14 Days After Application VIOTR; for pest or weed control at 17.5 g/ha: 17.5 g ai/ha; for pest or weed control at 35 g/ha: 35 g ai/ha; for pest or weed control at 70 g/ha: 70 g ai/ha; for pest or weed control at 140 g/ha: 140 g ai/ha
Summary of the method: as §1

## Nc1c(F)c(-c2ccc(F)c3c2OC(F)(F)O3)nc(C(=O)O)c1Cl [Compound 8]
[1]
  pest or weed control at 17.5 g/ha: 0%
  pest or weed control at 35 g/ha: 0%
  pest or weed control at 70 g/ha: 0%
  pest or weed control at 140 g/ha: 0%
[2]
  pest or weed control at 17.5 g/ha: 0%
  pest or weed control at 35 g/ha: 0%
  pest or weed control at 70 g/ha: 0%
  pest or weed control at 140 g/ha: 0%
[3]
  pest or weed control at 17.5 g/ha: 0%
  pest or weed control at 35 g/ha: 0%
  pest or weed control at 70 g/ha: 0%
  pest or weed control at 140 g/ha: 10%
[4]
  pest or weed control at 17.5 g/ha: 0%
  pest or weed control at 35 g/ha: 0%
  pest or weed control at 70 g/ha: 0%
  pest or weed control at 140 g/ha: 0%
[5]
  pest or weed control at 17.5 g/ha: 0%
  pest or weed control at 35 g/ha: 0%
  pest or weed control at 70 g/ha: 0%
  pest or weed control at 140 g/ha: 0%
[6]
  pest or weed control at 17.5 g/ha: 70%
  pest or weed control at 35 g/ha: 75%
  pest or weed control at 70 g/ha: 85%
  pest or weed control at 140 g/ha: 97%
[7]
  pest or weed control at 17.5 g/ha: 0%
  pest or weed control at 35 g/ha: 0%
  pest or weed control at 70 g/ha: 10%
  pest or weed control at 140 g/ha: 10%
[8]
  pest or weed control at 17.5 g/ha: 0%
  pest or weed control at 35 g/ha: 0%
  pest or weed control at 70 g/ha: 0%
  pest or weed control at 140 g/ha: 0%
[9]
  pest or weed control at 17.5 g/ha: 20%
  pest or weed control at 35 g/ha: 75%
  pest or weed control at 70 g/ha: 80%
  pest or weed control at 140 g/ha: 80%
[10]
  pest or weed control at 17.5 g/ha: 30%
  pest or weed control at 35 g/ha: 40%
  pest or weed control at 70 g/ha: 60%
  pest or weed control at 140 g/ha: 75%
[11]
  pest or weed control at 17.5 g/ha: 0%
  pest or weed control at 35 g/ha: 5%
  pest or weed control at 70 g/ha: 15%
  pest or weed control at 140 g/ha: 35%

## COC(=O)c1nc(-c2ccc(I)c3c2OC(F)(F)O3)c(F)c(N)c1Cl [Compound 10]
[1]
  pest or weed control at 17.5 g/ha: 0%
  pest or weed control at 35 g/ha: 0%
  pest or weed control at 70 g/ha: 0%
  pest or weed control at 140 g/ha: 0%
[2]
  pest or weed control at 17.5 g/ha: 0%
  pest or weed control at 35 g/ha: 0%
  pest or weed control at 70 g/ha: 0%
  pest or weed control at 140 g/ha: 0%
[3]
  pest or weed control at 17.5 g/ha: 0%
  pest or weed control at 35 g/ha: 0%
  pest or weed control at 70 g/ha: 0%
  pest or weed control at 140 g/ha: 0%
[4]
  pest or weed control at 17.5 g/ha: 0%
  pest or weed control at 35 g/ha: 0%
  pest or weed control at 70 g/ha: 0%
  pest or weed control at 140 g/ha: 0%
[5]
  pest or weed control at 17.5 g/ha: 0%
  pest or weed control at 35 g/ha: 0%
  pest or weed control at 70 g/ha: 0%
  pest or weed control at 140 g/ha: 0%
[6]
  pest or weed control at 17.5 g/ha: 50%
  pest or weed control at 35 g/ha: 60%
  pest or weed control at 70 g/ha: 65%
  pest or weed control at 140 g/ha: 70%
[7]
  pest or weed control at 17.5 g/ha: 0%
  pest or weed control at 35 g/ha: 0%
  pest or weed control at 70 g/ha: 0%
  pest or weed control at 140 g/ha: 0%
[8]
  pest or weed control at 17.5 g/ha: 0%
  pest or weed control at 35 g/ha: 0%
  pest or weed control at 70 g/ha: 0%
  pest or weed control at 140 g/ha: 0%
[9]
  pest or weed control at 17.5 g/ha: 60%
  pest or weed control at 35 g/ha: 70%
  pest or weed control at 70 g/ha: 70%
  pest or weed control at 140 g/ha: 75%
[10]
  pest or weed control at 17.5 g/ha: 65%
  pest or weed control at 35 g/ha: 70%
  pest or weed control at 70 g/ha: 75%
  pest or weed control at 140 g/ha: 75%
[11]
  pest or weed control at 17.5 g/ha: 0%
  pest or weed control at 35 g/ha: 0%
  pest or weed control at 70 g/ha: 0%
  pest or weed control at 140 g/ha: 0%
